# Test results published in patent US20060247227A1, “Substituted piperidines as histamine h3 receptor ligands” (priority 2003, published 2006).
# Counter-ions that a name gives are not always drawn.
# Target: T1, histamine H3 receptor (Homo sapiens, UniProt Q9Y5N1)
# T1 construct: expressed in transfected cells; host or cells: CHO K1 cells carrying pSwitch, transfected with pGeneH3 and induced with mifepristone; clone 3H3; membranes
# Assay: Histamine H3 functional antagonist assay ([35S]GTPγS, SPA, membranes of CHO K1 cells expressing the receptor)
# Format: biochemical
# Details: histamine-stimulated GTPγS binding, membranes with human H3
# Source text: A membrane preparation containing histamine H3 receptors may be prepared in accordance with the following procedures:
# (i) Generation of Histamine H3 Cell Line
# DNA encoding the human histamine H3 gene (Huvar, A. et al. (1999) Mol. Pharmacol. 55(6), 1101-1107) was cloned into a holding vector, pCDNA3.1 TOPO (InVitrogen) and its cDNA was isolated from this vector by restriction digestion of plasmid DNA with the enzymes BamH1 and Not-1 and ligated into the inducible expression vector pGene (InVitrogen) digested with the same enzymes. The GeneSwitch™ system (a system where in transgene expression is switched off in the absence of an inducer and switched on in the presence of an inducer) was performed as described in U.S. Pat. Nos. 5,364,791; 5,874,534; and 5,935,934. Ligated DNA was transformed into competent DH5α E. coli host bacterial cells and plated onto Luria Broth (LB) agar containing Zeocin™ (an antibiotic which allows the selection of cells expressing the sh ble gene which is present on pGene and pSwitch) at 50 μg ml^−1. Colonies containing the re-ligated plasmid were identified by restriction analysis. DNA for transfection into mammalian cells was prepared from 250 ml cultures of the host bacterium containing the pGeneH3 plasmid and isolated using a DNA preparation kit (Qiagen Midi-Prep) as per manufacturers guidelines (Qiagen).
# CHO K1 cells previously transfected with the pSwitch regulatory plasmid (InVitrogen) were seeded at 2×10e6cells per T75 flask in Complete Medium, containing Hams F12 (GIBCOBRL, Life Technologies) medium supplemented with 10% v/v dialysed foetal bovine serum, L-glutamine, and hygromycin ([…]), 24 hours prior to use. Plasmid DNA was transfected into the cells using Lipofectamine plus according to the manufacturers guidelines (InVitrogen). 48 hours post transfection cells were placed into complete medium supplemented with […] Zeocin™.
# 10-14 days post selection 10 nM Mifepristone (InVitrogen), was added to the culture medium to induce the expression of the receptor. 18 hours post induction cells were detached from the flask using ethylenediamine tetra-acetic acid (EDTA; 1:5000; InVitrogen), following several washes with phosphate buffered saline pH 7.4and resuspended in Sorting Medium containing Minimum Essential Medium (MEM), without phenol red, and supplemented with Earles salts and 3% Foetal Clone II (Hyclone). Approximately 1×10e7 cells were examined for receptor expression by staining with a rabbit polyclonal antibody, 4a, raised against the N-terminal domain of the histamine H3 receptor, incubated on ice for 60 minutes, followed by two washes in sorting medium. Receptor bound antibody was detected by incubation of the cells for 60 minutes on ice with a goat anti rabbit antibody, conjugated with Alexa 488 fluorescence marker (Molecular Probes). Following two further washes with Sorting Medium, cells were filtered through a 50 μm Filcon™ (BD Biosciences) and then analysed on a FACS Vantage SE Flow Cytometer fitted with an Automatic Cell Deposition Unit. Control cells were non-induced cells treated in a similar manner. Positively stained cells were sorted as single cells into 96-well plates, containing Complete Medium containing 500 μg ml^−1 Zeocin™ and allowed to expand before reanalysis for receptor expression via antibody and ligand binding studies. One clone, 3H3, was selected for membrane preparation.
# (ii) Membrane Preparation from Cultured Cells
# All steps of the protocol are carried out at 4° C. and with pre-cooled reagents. The cell pellet is resuspended in 10 volumes of buffer A2 containing 50 mM N-2-hydroxyethylpiperazine-N′-2-ethanesulfonic acid (HEPES) (pH 7.40) supplemented with […] leupeptin (acetyl-leucyl-leucyl-arginal; Sigma L2884), 25 μg/ml bacitracin (Sigma B0125), 1 mM ethylenediamine tetra-acetic acid (EDTA), 1 mM phenylmethylsulfonyl fluoride (PMSF) and 2×10e-6M pepstain A (Sigma). […]
# T1 sequence (Q9Y5N1 whole entry): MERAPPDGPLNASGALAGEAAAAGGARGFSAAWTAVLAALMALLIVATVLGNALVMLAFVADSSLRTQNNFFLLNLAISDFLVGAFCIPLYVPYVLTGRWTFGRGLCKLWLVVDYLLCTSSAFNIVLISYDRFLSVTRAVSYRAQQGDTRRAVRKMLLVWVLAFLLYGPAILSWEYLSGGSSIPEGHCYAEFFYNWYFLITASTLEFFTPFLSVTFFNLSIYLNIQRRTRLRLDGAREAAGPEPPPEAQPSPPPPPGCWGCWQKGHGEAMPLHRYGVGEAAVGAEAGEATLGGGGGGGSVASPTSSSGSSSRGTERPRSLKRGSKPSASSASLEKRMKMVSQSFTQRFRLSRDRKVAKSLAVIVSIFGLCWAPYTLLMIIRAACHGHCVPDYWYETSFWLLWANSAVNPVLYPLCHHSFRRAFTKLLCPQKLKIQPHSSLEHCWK
row,Ki,SMILES
1,≤ 1 nM,O=C(c1ccc(N2CCC(OC3CCN(C4CCC4)CC3)CC2)nc1)N1CCCC1 [Example E56]
2,≤ 1 nM,O=C(c1ccc(N2CCC(OC3CCN(C4CCC4)CC3)CC2)nc1)N1CCOCC1 [Example E57]
3,< 10 nM,CNC(=O)c1cccc(N2CCC(OC3CCN(C(C)C)CC3)CC2)n1 [Example E58]
4,< 10 nM,CC(C)N1CCC(OC2CCN(c3cccc(C(=O)N4CCCC4)n3)CC2)CC1 [Example E60]
5,< 10 nM,CC(C)N1CCC(OC2CCN(c3cccc(C(=O)N4CCOCC4)n3)CC2)CC1 [Example E61]
6,≤ 1 nM,CNC(=O)c1cccc(N2CCC(OC3CCN(C4CCC4)CC3)CC2)n1 [Example E62]
7,< 10 nM,CN(C)C(=O)c1cccc(N2CCC(OC3CCN(C4CCC4)CC3)CC2)n1 [Example E63]
8,< 10 nM,O=C(c1cccc(N2CCC(OC3CCN(C4CCC4)CC3)CC2)n1)N1CCCC1 [Example E64]
9,< 10 nM,O=C(c1cccc(N2CCC(OC3CCN(C4CCC4)CC3)CC2)n1)N1CCOCC1 [Example E65]
10,< 10 nM,CC(C)NC(=O)c1cc(N2CCC(OC3CCN(C4CCC4)CC3)CC2)ccn1 [Example E67]
11,< 10 nM,O=C(c1cc(N2CCC(OC3CCN(C4CCC4)CC3)CC2)ccn1)N1CCCCC1 [Example E69]
12,≤ 1 nM,"CNC(=O)c1cnc(N2CCC(OC3CCN(C4CCC4)CC3)CC2)cn1 [Example E70, 5-(4-[(1-Cyclobutyl-4-piperidinyl)oxy]-1-piperidinyl}-N-methyl-2-pyrazinecarboxamide butanedioate]"
13,≤ 1 nM,CCNC(=O)c1cnc(N2CCC(OC3CCN(C4CCC4)CC3)CC2)cn1 [Example E71]
14,≤ 1 nM,CCCNC(=O)c1cnc(N2CCC(OC3CCN(C4CCC4)CC3)CC2)cn1 [Example E72]
15,≤ 1 nM,CC(C)NC(=O)c1cnc(N2CCC(OC3CCN(C4CCC4)CC3)CC2)cn1 [Example E73]
16,≤ 1 nM,O=C(NC1CCC1)c1cnc(N2CCC(OC3CCN(C4CCC4)CC3)CC2)cn1 [Example E74]
17,≤ 1 nM,CNC(=O)c1cnc(N2CCC(OC3CCN(C(C)C)CC3)CC2)cn1 [Example E75]
18,≤ 1 nM,CCNC(=O)c1cnc(N2CCC(OC3CCN(C(C)C)CC3)CC2)cn1 [Example E76]
19,≤ 1 nM,CCCNC(=O)c1cnc(N2CCC(OC3CCN(C(C)C)CC3)CC2)cn1 [Example E77]
20,≤ 1 nM,CC(C)NC(=O)c1cnc(N2CCC(OC3CCN(C(C)C)CC3)CC2)cn1 [Example E78]
21,≤ 1 nM,CC(C)N1CCC(OC2CCN(c3cnc(C(=O)NC4CCC4)cn3)CC2)CC1 [Example E79]
22,≤ 1 nM,"CC(C)N1CCC(OC2CCN(c3ccc(C#N)nc3)CC2)CC1 [Example E80, 5-(4-{[1-(1-Methylethyl)-4-piperidinyl]oxy)-1-piperidinyl)-2-pyridinecarbonitrile hydrochloride]"

row,Ki,SMILES
1,≤ 1 nM,"CC(C)N1CCC(OC2CCN(c3ccc(C(F)(F)F)nc3)CC2)CC1 [Example E81, 5-{4-[(1-Methylethyl-4-piperidinyl)oxy]-1-piperidinyl}-2-(trifluoromethyl)pyridine hydrochloride]"
2,< 0.316 nM,"FC(F)(F)c1ccc(N2CCC(OC3CCN(C4CCC4)CC3)CC2)nn1 [Example E82, 3-{4-[(1-Cyclobutyl-4-piperidinyl)oxy]-1-piperidinyl}-6-(trifluoromethyl)pyridazine hydrochloride]"
3,< 10 nM,"CC(C)N1CCC(OC2CCN(c3ccc(C(F)(F)F)nn3)CC2)CC1 [Example E83, 3-(4-{[1-(1-Methylethyl)-4-piperidinyl]oxy}-1-piperidinyl)-6-(trifluoromethyl)pyridazine]"
4,≤ 1 nM,"FC(F)(F)c1cnc(N2CCC(OC3CCN(C4CCC4)CC3)CC2)cn1 [Example E84, 2-{4-[(1-Cyclobutyl-4-piperidinyl)oxy]-1-piperidinyl}-5-(trifluoromethyl)pyrazine hydrochloride]"
5,≤ 1 nM,"CC(C)N1CCC(OC2CCN(c3cnc(C(F)(F)F)cn3)CC2)CC1 [Example E85, 2-(4-[1-(1-Methylethyl)-4-piperidinyl]oxy}-1-piperidinyl)-5-(trifluoromethyl)pyrazine hydrochloride]"
6,≤ 1 nM,"FC(F)(F)c1ccc(N2CCC(OC3CCN(C4CCC4)CC3)CC2)nc1 [Example E86, 2-{4-[(1-Cyclobutyl-4-piperidinyl)oxy]-1-piperidinyl}-5-(trifluoromethyl)pyridine hydrochloride]"
7,< 10 nM,"CC(C)N1CCC(OC2CCN(c3ccc(C(F)(F)F)cn3)CC2)CC1 [Example E87, 2-(4-{[1-(1-Methylethyl)-4-piperidinyl]oxy}-1-piperidinyl)-5-(trifluoromethyl)pyridine hydrochloride]"
8,< 0.316 nM,"FC(F)(F)c1ncc(N2CCC(OC3CCN(C4CCC4)CC3)CC2)cn1 [Example E88, 5-{4-[(1-Cyclobutyl-4-piperidinyl)oxy]-1-piperidinyl}-2-(trifluoromethyl)pyrimidine]"
9,≤ 1 nM,"CC(C)N1CCC(OC2CCN(c3cnc(C(F)(F)F)nc3)CC2)CC1 [Example E89, 5-(4-{[1-(1-Methylethyl)-4-piperidinyl]oxy}-1 piperidinyl)-2-(trifluoromethyl) pyrimidine]"
10,≤ 1 nM,"CCC(=O)c1ccc(N2CCC(OC3CCN(C4CCC4)CC3)CC2)cc1 [Example E90, 1-(4-{4-[(1-Cyclobutyl-4-piperidinyl)oxy]-1-piperidinyl}phenyl)-1-propanone]"
11,≤ 1 nM,O=C(c1ccc(N2CCC(OC3CCN(C4CCC4)CC3)CC2)cc1)C1CC1 [Example E91]
12,≤ 1 nM,"CC(=O)c1ccc(N2CCC(OC3CCN(C4CCC4)CC3)CC2)nc1 [Example E93, 1-(6-{4-[(1-Cyclobutyl-4-piperidinyl)oxy]-1-piperidinyl}-3-pyridinyl)ethanone]"
13,≤ 1 nM,"Cc1ccc2cc(N3CCC(OC4CCN(C5CCC5)CC4)CC3)ccc2n1 [Example E94, 6-{4-[(1-Cyclobutyl-4-piperidinyl)oxy]-1-piperidinyl}-2-methylquinoline hydrochloride]"
14,≤ 1 nM,"CC(C)N1CCC(OC2CCN(c3ccc(C(=O)OC(C)(C)C)nc3)CC2)CC1 [Example E95, 1,1-Dimethylethyl 5-(4-{[1-(1-methylethyl)-4-piperidinyl]oxy}-1-piperidinyl)-2-pyridinecarboxylate]"
15,≤ 1 nM,"CC(C)(C)OC(=O)c1ccc(N2CCC(OC3CCN(C4CCC4)CC3)CC2)cn1 [Example E96, 1,1-Dimethylethyl 5-{4-[(1-cyclobutyl-4-piperidinyl)oxy]-1-piperidinyl}-2-pyridinecarboxylate]"
16,≤ 1 nM,"CC(=O)c1ccc(N2CCC(OC3CCN(C(C)C)CC3)CC2)cc1 [Example E97, 1-[4-(4-{[1-(Methylethyl)-4-piperidinyl]oxy}-1-piperidinyl)phenyl]ethanone]"
17,≤ 1 nM,"CC(=O)Nc1ccc(N2CCC(OC3CCN(C4CCC4)CC3)CC2)cc1F [Example E98, N-(4-{4-[(1-Cyclobutyl-4-piperidinyl)oxy]-1-piperidinyl}-2-fluorophenyl)acetamide hydrochloride]"
18,≤ 1 nM,CC[C@H](C)N1CCC(OC2CCN(c3ccc(C(C)=O)cc3)CC2)CC1 [Example E101]
19,≤ 1 nM,CC[C@@H](C)N1CCC(OC2CCN(c3ccc(C(C)=O)cc3)CC2)CC1 [Example E102]
20,< 10 nM,"CC(=O)c1ccc(N2CCC(OC3CCN(CC4CC4)CC3)CC2)cc1 [Example E103, 1-[4-(4-{[1-(Cyclopropylmethyl)-4-piperidinyl]oxy}-1-piperidinyl)phenyl]ethanone]"
21,≤ 1 nM,"O=C(NC1CCC1)c1ccc(N2CCC(OC3CCN(C4CCC4)CC3)CC2)cn1 [Example E104, N-Cyclobutyl-5-{4-[(1-cyclobutyl-4-piperidinyl)oxy]-1-piperidinyl}-2-pyridinecarboxamide]"
